Measurements: patent US10502741B2, “Means and methods for detecting activated MALT1” (Helmholtz Zentrum München Deutsches Forschungszentrum für …, priority 2014, dated 2019)
Primed or numbered codes have the meaning given here. The star is where a group is joined. FITC = O=C1OC2(c3ccc(O)cc3Oc3cc(O)ccc32)c2ccc(NC(=S)*)cc21; AOMK = acyloxymethyl ketone C-terminal warhead; AOMK″ = acyloxymethyl ketone; BODIPY = not defined here

Legend:
MALT1 = molecular target: T1, MALT1 (Homo sapiens, UniProt Q9UDY8); assay: MALT1 in vitro cleavage assay using fluorescent substrate; assay type: biochemical
T1 construct: GST
T1 sequence (Q9UDY8 1-824): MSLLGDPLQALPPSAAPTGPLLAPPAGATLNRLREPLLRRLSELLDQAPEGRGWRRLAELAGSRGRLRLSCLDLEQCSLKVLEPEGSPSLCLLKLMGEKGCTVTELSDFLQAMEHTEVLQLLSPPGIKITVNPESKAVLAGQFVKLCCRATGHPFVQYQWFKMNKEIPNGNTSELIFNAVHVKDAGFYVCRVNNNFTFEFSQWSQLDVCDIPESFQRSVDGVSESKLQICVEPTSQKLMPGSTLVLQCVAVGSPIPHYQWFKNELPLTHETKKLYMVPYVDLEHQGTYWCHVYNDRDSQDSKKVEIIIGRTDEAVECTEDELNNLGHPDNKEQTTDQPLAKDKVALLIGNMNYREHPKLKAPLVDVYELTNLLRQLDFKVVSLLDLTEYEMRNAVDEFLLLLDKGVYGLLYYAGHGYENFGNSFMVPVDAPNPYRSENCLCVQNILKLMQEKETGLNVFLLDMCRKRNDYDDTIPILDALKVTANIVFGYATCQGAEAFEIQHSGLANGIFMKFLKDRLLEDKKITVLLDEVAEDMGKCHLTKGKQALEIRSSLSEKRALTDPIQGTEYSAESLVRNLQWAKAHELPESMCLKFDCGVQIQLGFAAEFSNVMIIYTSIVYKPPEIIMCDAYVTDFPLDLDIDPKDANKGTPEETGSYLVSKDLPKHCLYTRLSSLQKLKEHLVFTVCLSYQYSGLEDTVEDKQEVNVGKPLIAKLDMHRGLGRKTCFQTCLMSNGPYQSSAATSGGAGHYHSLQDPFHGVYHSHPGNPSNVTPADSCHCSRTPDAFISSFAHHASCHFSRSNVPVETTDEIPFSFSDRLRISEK
Procedure: (§1) C) Impact of indicated compounds on MALT1, Caspase8 and cathepsin B was tested in in vitro cleavage assays using fluorescent substrates. Results and SD from three independent experiments are shown.
Preferably, MALT1 activity is determined in a MALT1 cleavage assay. […] The assay may be performed in cleavage buffer comprising for example 50 mM MES, 1 M sodium citrate pH 7, 150 mM NaCl, 10% sucrose, 0.1% chaps, 10 mM DTT. Catalytically active MALT1 cleaves the substrate and an increase of AMC fluorescence can be measured.

active MALT1 [1] = molecular target: T2, active MALT1 (Homo sapiens, UniProt Q9UDY8); assay: Labeling with diagnostic inhibitor in cell extracts (gel-based, fluorescence scan): active MALT1 band; conditions: for selectivity / background of probe labeling in extracts: Jurkat T cell extracts; for detection of endogenous active MALT1-probe complexes: Jurkat T cells stimulated or not, whole cell lysates; for effect of inhibitor pretreatment on probe 5 labeling of active MALT1: Jurkat T cells, 10 μM inhibitor before stimulation
T2 construct: endogenous in cells; host or cells: Jurkat T cells, primary human PBMCs and T cells, DLBCL cell lines (HBL1, TMD8, OCI-Ly3, OCI-Ly10, U2932, RIVA, BJAB, Su-DHL-4, Su-DHL-6)
T2 sequence (Q9UDY8 1-824): T1 sequence (Q9UDY8 1-824)
Procedure: (§2) Jurkat T cells were cultured in standard RPMI medium containing 10% FCS, 100 U/ml Penicillin/Streptomycin and 2 mM Glutamin. DNA transfection of 6 μg DNA in 8×10^6 Jurkat T cells was performed by electroporation in a GenePulser Xcell (BioRad) with a 220 Volt pulse. For siRNA experiments, Jurkat T cells were transfected with 100 nM siRNA and Atufect transfection reagent (Silence Therapeutics, Berlin). Jurkat T cells were stimulated either with 200 ng/ml PMA (phorbol 12-myristate 13-acetate) and 300 ng/ml Ionomycin (both Calbiochem) or CD3/CD28 antibody co-ligation (human CD3: 1 μg/ml; human CD28: 4 μg/ml; mouse IgG1: 2 μg/ml; mouse IgG2a: 2 μg/ml; BD Biosciences). DLBCL cell lines (HBL1, TMD8, OCI-Ly3, U2932, RIVA, BJAB, Su-DHL-4 and Su-DHL-6) were cultured in standard RPMI medium containing 20% FCS, 100 U/ml Penicillin/Streptomycin and 2 mM Glutamin. OCI-Ly10 cell line was cultured in IMDM containing 20% human serum, 100 U/ml Penicillin/Streptomycin, 2 U/ml heparine, 50 μM β-mercaptoethanol. Inhibitors 10 μM (z-VRPR-FMK, Mepazine, Thioridazine, CA-074Me) were added to the cells in media for 1 h, prior to stimulation and labeling with diagnostic MALT1 inhibitor.
(§3) Jurkat T cells (1-2×10^7), primary human PBMCs or primary human T cells (0.25 or 1×10^7) were lysed in 150 μl co-IP buffer without protease inhibitors. DLBCL (3×10^7) were lysed in 250 μl buffer. After centrifugation (14000 rpm, 10 min, 4° C.), 100 μl extract (DLBCL: 200 μl) was stained with probe 5 or probe 6 (3 μM end) for 50 min at 29° C., mixed with 4× loading dye and boiled.

cathepsin B [2] = molecular target: T3, cathepsin B (Homo sapiens, UniProt P07858); assay: Cathepsin B cleavage assay (zRR-AMC substrate); assay type: biochemical; parameters: purchased BioVision; conditions: 0.2 ng cathepsin B, 1 mM zRR-AMC, 2 h at 30° C.
Procedure: as §1
0.2 ng cathepsin B together with probe 5, z-VRPR-FMK (SEQ ID No. 6), mepazine or CA-074 was incubated with 1 mM zRR-AMC substrate for 2 h at 30° C. Assay was performed in 0.1 M sodium acetate pH 5.5, 10 mM DTT and 0.1 mM EDTA. Again, increase of AMC fluorescence is measured in a Synergy 2 Microplate Reader (Biotek).

cathepsin B [3] = molecular target: T3, cathepsin B; assay: Labeling with diagnostic inhibitor in cell extracts (gel-based, fluorescence scan): about 30 kDa cathepsin B band; parameters: endogenous in cells; host or cells: Jurkat T cells; HBL1 and other DLBCL cell lines; conditions: for effect of inhibitor pretreatment on the band below 34 kDa (cathepsin B) labeled by probe 5: Jurkat T cells, 10 μM inhibitor
Procedure: as §2, §3

active MALT1 [4] = molecular target: T2, active MALT1; assay: ELISA-based assay (MALT1 ELASA) on streptavidin-coated plates with MALT1 antibody detection; assay type: cell-based; conditions: for effect of inhibitor on active MALT1 signal in DLBCL cells: inhibitor-treated (10 μM) DLBCL cells
Procedure: as §2
Untreated DLBCL (1×10^7), primary T cells (0.25×10^7) or Jurkat T cells (0.2-1×10^7) (stimulated or not) were lysed in 300 μl co-IP buffer without protease inhibitors, centrifuged, incubated with probe 7 (concentration as depicted) for 1 h at RT, then transferred to streptavidin-coated plates (96 well, clear) and incubated o/n at 4° C. After blocking with 2% BSA in PBS-T, detection was performed by incubation with MALT1 primary antibody (1 h, RT) and HRP-coupled secondary antibody (1 h, RT). […] was determined after TMB substrate incubation in a photometer (Bio-Tek).

active MALT1 [5] = molecular target: T2, active MALT1; assay: Probe 7-pulldown with streptavidin beads and western blot; assay type: cell-based
Procedure: as §2
Untreated DLBCL (1-2×10^7) or Jurkat T cells (stimulated with PMA/Ionomycin or CD3/28 or left untreated; 1-2×10^7), were lysed in 500 μl co-IP buffer without protease inhibitors, centrifuged, incubated with probe 7 (concentration as depicted) for 1 h at RT then incubated with streptavidin beads for 2 h at 4° C. Precipitate was washed, analysed by SDS-PAGE and western blot.

[6] = HBL1 cells, inhibitors 10 μM each

Compound: CCCNC(=O)[C@H]1O[C@@H]1C(=O)N[C@H](C(=O)N1CCC[C@H]1C(=O)O)[C@@H](C)CC [CA-074]
- inhibition of MALT1 protease activity in vitro (MALT1): neither the non-competitive MALT1 inhibitor mepazine, nor the irreversible cathepsin B specific inhibitor CA-074 showed any cross-inhibition

Compound: FITC-LRSR-AOMK ({FITC}-LRSR-{AOMK}) [probe 5]
- active MALT1 signal in lymphoma whole cell extracts (active MALT1 [1]; ABC DLBCL cells (HBL1 for probe 6)): not detectable
- selectivity / background of probe labeling in extracts (active MALT1 [1]): MALT1 was the only inducible band
- detection of endogenous active MALT1-probe complexes (active MALT1 [1]): exclusively detected after T cell stimulation
- detection of active MALT1 in primary cells (active MALT1 [1]; extracts of P/I-stimulated PBMCs and human T cells): detected active MALT1
- inhibition of cathepsin B activity in vitro (cathepsin B [2]): abrogated cathepsin B activity even though slightly less efficient
- inhibition of MALT1 protease activity in vitro (MALT1): inhibit MALT1

Compound: CN1CCCC(CN2c3ccccc3Sc3ccccc32)C1 (centres unmarked) [mepazine, 10-[(1-methylpiperidin-3-yl)methyl]-10H-phenothiazine]
- effect of inhibitor pretreatment on the band below 34 kDa (cathepsin B) labeled by probe 5 (cathepsin B [3]): unaffected
- effect of inhibitor on probe 6 labeling of active MALT1 (active MALT1 [1]; [6]): sensitivity
- effect of inhibitor pretreatment on probe 5 labeling of active MALT1 (active MALT1 [1]): prevents binding of diagnostic MALT1-inhibitor
- inhibition of cathepsin B activity in vitro (cathepsin B [2]): neither the non-competitive MALT1 inhibitor mepazine, nor the irreversible cathepsin B specific inhibitor CA-074 showed any cross-inhibition
- effect of inhibitor on active MALT1 signal in DLBCL cells (active MALT1 [4]; probe 7): strongly reduced
- effect of inhibitor on formation of MALT1-probe 7 complexes (active MALT1 [5]; Jurkat T cells pretreated with 10 μM inhibitors, 0.1 μM probe 7): blocked

Compound: CN1CCC[C@H](CN2c3ccccc3Sc3ccccc32)C1 [S-mepazine, 10-{[(3S)-1-methylpiperidin-3-yl]methyl}-10H-phenothiazine]
- cellular MALT1 inhibition, inhibitor profiling (active MALT1 [4]; ABC DLBCL cell line OCI-Ly3, increasing concentrations): slightly more potent
- concentrations at which MALT1 was inhibited (active MALT1 [4]; all ABC DLBCL cell lines): 0.3 to 10 µM

Compound: CSc1ccc2c(c1)N(CCC1CCCCN1C)c1ccccc1S2 (centres unmarked) [thioridazine, 10-[2-(1-methylpiperidin-2-yl)ethyl]-2-(methylthio)phenothiazine]
- effect of inhibitor pretreatment on the band below 34 kDa (cathepsin B) labeled by probe 5 (cathepsin B [3]): unaffected
- effect of inhibitor pretreatment on probe 5 labeling of active MALT1 (active MALT1 [1]): prevents binding of diagnostic MALT1-inhibitor

Compound: Ac-Lys(biotin)-LRSR-AOMK [probe 7]
- probe concentration sufficient to obtain a robust increase in active MALT1 (active MALT1 [4]; 2×10^6 Jurkat T cells stimulated or not): ≤ 10 nM
- MALT1 activity in ABC versus GCB DLBCL cells, ELISA (active MALT1 [4]; DLBCL cell lines, probe 7): significant increase in MALT1 activity in ABC DLBCL cells when compared to GCB DLBCL cells
- MALT1 binding to streptavidin-coated plates (active MALT1 [4]; Jurkat T cells, stimulated or not): only detected in P/I or CD3/CD28 stimulated Jurkat T cells
- active MALT1 in stimulated primary T cells, ELISA (active MALT1 [4]; primary human T cells, 0.1 μM probe 7): robust induction of active MALT1
- detection of MALT1-probe 7 complexes after pulldown (active MALT1 [5]; Jurkat T cells, P/I stimulated or not): exclusively detected in extracts of P/I stimulated Jurkat T cells
- probe concentration sufficient to completely remove active MALT1 from the extracts (active MALT1 [5]; extracts of stimulated T cells, supernatant checked with probe 6): 100 nM
- constitutively active MALT1 after pulldown in DLBCL cells (active MALT1 [5]; untreated ABC and GCB DLBCL cells, western blot): exclusively in ABC, but not in GCB DLBCL cells

Compound: BODIPY-ALVSR-AOMK ({BODIPY}-ALVSR-{AOMK″}; reading uncertain)
- selectivity / background of probe labeling in extracts (active MALT1 [1]): unspecific background labeling of unknown identity at approx. 40 kDa
- detection of endogenous active MALT1-probe complexes (active MALT1 [1]): exclusively detected after stimulation
- effect of titrating probe concentration on labeling (active MALT1 [1]; extracts of stimulated Jurkat T cells): decrease background labeling, while active MALT1 activity stays stable

Compound: CCCNC(=O)[C@H]1O[C@@H]1C(=O)N[C@H](C(=O)N1CCC[C@H]1C(=O)OC)[C@@H](C)CC [CA-074Me]
- effect of inhibitor on the about 30 kDa cathepsin B signal labeled by probe 6 (cathepsin B [3]; [6]): sensitive
- effect of inhibitor pretreatment on the band below 34 kDa (cathepsin B) labeled by probe 5 (cathepsin B [3]): completely abolished detection
- effect of inhibitor pretreatment on probe 5 labeling of active MALT1 (active MALT1 [1]): inducible MALT1 labeling was unaffected
- effect of inhibitor on active MALT1 signal in DLBCL cells (active MALT1 [4]; probe 7): resistant

Compound: C=CC(=O)N1CCC[C@@H](n2nc(-c3ccc(Oc4ccccc4)cc3)c3c(N)ncnc32)C1 [Ibrutinib]
- reduction of MALT1 activity (active MALT1 [4]; 0.5 nM, ABC DLBCL cells): 50-60%
